Literature values in patent publication US20090088578A1, “NUCLEAR MAGNETIC RESONANCE IMAGING OF SELECTIVE SMALL MOLECULE DRUGS AS CONTRAST AGENTS” (priority 2007, published 2009).

Target: T1, aldehyde dehydrogenase 1 (Homo sapiens, UniProt P00352)
T1 sequence (P00352 1-501): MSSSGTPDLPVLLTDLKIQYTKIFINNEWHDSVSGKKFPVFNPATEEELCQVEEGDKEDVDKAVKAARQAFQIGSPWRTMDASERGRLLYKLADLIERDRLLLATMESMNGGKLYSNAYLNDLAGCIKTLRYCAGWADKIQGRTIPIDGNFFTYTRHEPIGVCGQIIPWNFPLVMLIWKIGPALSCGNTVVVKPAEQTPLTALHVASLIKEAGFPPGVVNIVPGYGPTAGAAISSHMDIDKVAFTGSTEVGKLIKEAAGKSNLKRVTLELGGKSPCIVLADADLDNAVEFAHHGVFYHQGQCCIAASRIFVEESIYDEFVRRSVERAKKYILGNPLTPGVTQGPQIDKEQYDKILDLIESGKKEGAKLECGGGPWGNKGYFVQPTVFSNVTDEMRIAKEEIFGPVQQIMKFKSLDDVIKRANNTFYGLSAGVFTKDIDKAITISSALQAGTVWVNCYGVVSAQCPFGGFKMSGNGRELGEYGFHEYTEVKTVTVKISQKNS
Conditions: one of its two known protein targets

affinity for aldehyde dehydrogenase 1: low affinity
Structure (SMILES): CCN(CC)CCCC(C)Nc1ccnc2cc(Cl)ccc12 (stereo not shown) [Chloroquine, chloroquine]
